Experiment [1] concerns the target T1, mu-opioid receptor (Homo sapiens, UniProt P35372). Put plainly: biochemical. Particulars: read-out: GTP Activity.
Target sequence in this assay (P35372 whole entry, species assumed): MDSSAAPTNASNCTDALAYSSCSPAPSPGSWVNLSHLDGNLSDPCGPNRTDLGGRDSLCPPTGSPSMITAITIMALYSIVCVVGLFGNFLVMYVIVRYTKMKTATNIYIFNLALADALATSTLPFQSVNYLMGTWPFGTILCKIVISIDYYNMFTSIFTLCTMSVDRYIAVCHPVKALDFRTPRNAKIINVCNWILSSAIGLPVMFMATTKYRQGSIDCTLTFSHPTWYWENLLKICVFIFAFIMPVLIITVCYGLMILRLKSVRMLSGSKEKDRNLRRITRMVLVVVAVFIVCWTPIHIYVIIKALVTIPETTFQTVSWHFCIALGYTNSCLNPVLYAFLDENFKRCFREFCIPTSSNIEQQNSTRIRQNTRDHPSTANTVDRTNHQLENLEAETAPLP
Experiment [2] addresses T1, mu-opioid receptor. Nature of the experiment: cell-based. Particulars: class symbols; read-out: BArr Activity.
Target sequence in this assay (P35372 whole entry, species assumed): as above
Target sequence in this assay (P32121 whole entry partner, species assumed): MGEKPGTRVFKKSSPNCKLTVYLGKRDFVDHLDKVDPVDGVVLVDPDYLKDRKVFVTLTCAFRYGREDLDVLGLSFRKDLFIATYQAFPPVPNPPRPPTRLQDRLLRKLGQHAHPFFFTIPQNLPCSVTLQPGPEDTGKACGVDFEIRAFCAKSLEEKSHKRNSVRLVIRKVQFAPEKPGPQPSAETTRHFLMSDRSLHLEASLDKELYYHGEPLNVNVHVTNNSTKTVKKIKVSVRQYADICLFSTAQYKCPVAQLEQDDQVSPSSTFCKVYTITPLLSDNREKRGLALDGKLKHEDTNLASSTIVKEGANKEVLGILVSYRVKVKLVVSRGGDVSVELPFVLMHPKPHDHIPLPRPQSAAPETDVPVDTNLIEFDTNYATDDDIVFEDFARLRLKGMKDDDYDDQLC
Setting [3] is: […], class symbol combines EC50 and efficacy.

Among the data in US9580409B2, “Modulators of opioid receptors and methods of use thereof” (priority 2011, dated 2017) are EC50 values, retold here.

With `COc1cc(OC)cc(N2C(N)=C(c3nc4ccccc4[nH]3)C(=O)C2C)c1` (stereo not drawn) [compound 1], the EC50 on mu-opioid receptor [1] (class symbols) is 100 to 1000 nM; at mu-opioid receptor [2] it was below 10 µM. Taken in the same sequence, the figures for `COc1cc(OC)cc(N2C(N)=C(c3nc4ccccc4[nH]3)C(=O)C2(C)C)c1` [compound 2] were 100 to 1000 nM and below 10 µM. Taken in the same sequence, the figures for `CCC1C(=O)C(c2nc3ccccc3[nH]2)=C(N)N1c1cc(OC)cc(OC)c1` (stereo not drawn) [compound 54] were 100 to 1000 nM and below 10 µM. Taken in the same sequence, the figures for `COc1cc(OC)cc(N2C(N)=C(c3nc4ccccc4[nH]3)C(=O)C2C(C)C)c1` (stereo not drawn) [compound 55] were 100 to 1000 nM and below 10 µM. Consider `CNC1=C(c2nc3ccccc3[nH]2)C(=O)CN1c1cc(OC)cc(OC)c1` [compound 58], for which the EC50 at mu-opioid receptor [1] (class symbols) was 100 to 1000 nM; at mu-opioid receptor [2], below 10 µM. Taken in the same sequence, the figures for `CNC1=C(c2nc3ccccc3[nH]2)C(=O)C(C)(C)N1c1cc(OC)cc(OC)c1` [compound 79] were below 100 nM and below 10 µM. The corresponding values for `COc1cc(OC)cc(N2C(N)=C(c3nc4ccccc4[nH]3)C(=O)[C@H]2C)c1` [compound 82] are below 100 nM and below 10 µM. `CCNC1=C(c2nc3ccccc3[nH]2)C(=O)CN1c1cc(OC)cc(OC)c1` [compound 88]: the results for the EC50 on mu-opioid receptor [1] (class symbols) and at mu-opioid receptor [2] were 100 to 1000 nM and below 10 µM, respectively. The corresponding values for `CCNC1=C(c2nc3ccccc3[nH]2)C(=O)C(C)(C)N1c1cc(OC)cc(OC)c1` [compound 89] are below 100 nM and below 10 µM. The corresponding values for `COc1cc(OC)cc(N2C(NC(C)C)=C(c3nc4ccccc4[nH]3)C(=O)C2(C)C)c1` [compound 90] are 100 to 1000 nM and below 10 µM. Taken in the same sequence, the figures for `CC[C@H]1C(=O)C(c2nc3ccccc3[nH]2)=C(N)N1c1cc(OC)cc(OC)c1` [compound 96] were below 100 nM and below 10 µM. With `COc1cc(OC)cc(N2C(N)=C(c3nc4ccccc4[nH]3)C(=O)[C@@H]2C(C)C)c1` [compound 98], the results for the EC50 on mu-opioid receptor [1] (class symbols) and at mu-opioid receptor [2] were below 100 nM and below 10 µM, respectively. `CNC1=C(c2nc3ccccc3[nH]2)C(=O)C2(CCC2)N1c1cc(OC)cc(OC)c1` [compound 109]: the EC50 at mu-opioid receptor [1] (class symbols) was below 100 nM; at mu-opioid receptor [2], below 10 µM. For `CNC1=C(c2nc3ccccc3[nH]2)C(=O)C(C)N1c1cc(OC)cc(OC)c1` (stereo not drawn) [compound 121], the EC50 was below 100 nM at mu-opioid receptor [1] (class symbols) and below 10 µM on mu-opioid receptor [2].

Turning to `COc1cc(OC)cc(N2C(N)=C(c3nc4ccccc4[nH]3)C(=O)C23CN(S(C)(=O)=O)C3)c1` [compound 251], the EC50 on mu-opioid receptor [1] (setting [3]) lay within 100 to 1000 nM.

`CNC1=C(c2nc3ccccc3[nH]2)C(=O)C(CCN)N1c1cc(OC)cc(OC)c1` (stereo not drawn) [compound 253]: the EC50 on mu-opioid receptor [1] (setting [3]) lay in the range of 100 to 1000 nM. Same read-out and setting: under `COc1cc(OC)cc(N2C(N)=C(c3nc4ccccc4[nH]3)C(=O)C2CCN(C)C(C)=O)c1` (stereo not drawn) [compound 256] stands 100 to 1000 nM; under `COc1cc(OC)cc(N2C(N)=C(c3nc4ccccc4[nH]3)C(=O)C2CCN(C)C(=O)c2ccccc2)c1` (stereo not drawn) [compound 257], 100 to 1000 nM; under `COc1cc(OC)cc(N2C(N)=C(c3nc4ccccc4[nH]3)C(=O)[C@]23C[C@H](O)C3)c1` [compound 258], 100 to 1000 nM.

For the compound `CNC1=C(c2nc3ccccc3[nH]2)C(=O)C2(CC(O)C2)N1c1cc(OC)cc(OC)c1` (stereo not drawn) [compound 259], at mu-opioid receptor [1] (setting [3]), the EC50 is below 100 nM.

Turning to `CNC1=C(c2nc3ccccc3[nH]2)C(=O)[C@]2(C[C@H](O)C2)N1c1cc(OC)cc(OC)c1` [compound 260], the EC50 at mu-opioid receptor [1] (setting [3]) is 100 to 1000 nM. Regarding `CNC1=C(c2nc3ccccc3[nH]2)C(=O)[C@@](C)(CCO)N1c1cc(OC)cc(OC)c1` [compound 261], at mu-opioid receptor [1] (setting [3]), the EC50 fell in the range of 100 to 1000 nM.

Consider `CNC1=C(c2nc3ccccc3[nH]2)C(=O)[C@](C)(CCO)N1c1cc(OC)cc(OC)c1` [compound 262], for which the EC50 at mu-opioid receptor [1] (setting [3]) was below 100 nM.

For the compound `CNC1=C(c2nc3ccccc3[nH]2)C(=O)C(CO)(CO)N1c1cc(OC)cc(OC)c1` [compound 263], the EC50 at mu-opioid receptor [1] (setting [3]) fell in the range of 100 to 1000 nM.

Regarding `CNC1=C(c2nc3ccccc3[nH]2)C(=O)C(CO)(CCl)N1c1cc(OC)cc(OC)c1` (stereo not drawn) [compound 264], the EC50 on mu-opioid receptor [1] (setting [3]) fell in the range of 100 to 1000 nM. Still for that read-out and setting: under `CNc1c(-c2nc3ccccc3[nH]2)c(=O)n(CCO)n1-c1cc(OC)cc(OC)c1` [compound 265] stands 100 to 1000 nM; under `CNc1c(-c2nc3ccccc3[nH]2)c(=O)n(CCOC)n1-c1cc(OC)cc(OC)c1` [compound 266], below 100 nM; under `CNc1c(-c2nc3ccccc3[nH]2)c(=O)n(CCCO)n1-c1cc(OC)cc(OC)c1` [compound 267], below 100 nM. For the compound `CNc1c(-c2nc3ccccc3[nH]2)c(=O)n(C2CCC2)n1-c1cc(OC)cc(OC)c1` [compound 269], the EC50 on mu-opioid receptor [1] (setting [3]) lay within 100 to 1000 nM.

`CNc1c(-c2nc3ccccc3[nH]2)c(=O)n(C2COC2)n1-c1cc(OC)cc(OC)c1` [compound 270]: on mu-opioid receptor [1] (setting [3]), the EC50 is below 100 nM.

With `CNc1c(-c2nc3ccccc3[nH]2)c(=O)n(CCNC(C)=O)n1-c1cc(OC)cc(OC)c1` [compound 271], the EC50 on mu-opioid receptor [1] (setting [3]) lay in the range of 100 to 1000 nM. The same measure, in the same setting: the value for `CNC1=C(c2nc3ccccc3[nH]2)C(=O)C2(CCCN(C(C)=O)C2)N1c1cc(OC)cc(OC)c1` (stereo not drawn) [compound 273] was 100 to 1000 nM; that for `CNC1=C(c2nc3ccccc3[nH]2)C(=O)C2(CNC(=O)C2)N1c1cc(OC)cc(OC)c1` (stereo not drawn) [compound 274] was 100 to 1000 nM. Still for that read-out and setting: the value for `CNC1=C(c2nc3ccccc3[nH]2)C(=O)C2(CC(=O)C2)N1c1cc(OC)cc(OC)c1` [compound 275] was below 100 nM. On the same count and under the same terms, the value for `CNC1=C(c2nc3ccccc3[nH]2)C(=O)C(C)(CC(C)=O)N1c1cc(OC)cc(OC)c1` (stereo not drawn) [compound 276] was 100 to 1000 nM; that for `CNC1=C(c2nc3ccccc3[nH]2)C(=O)C(C)(C(C)=O)N1c1cc(OC)cc(OC)c1` (stereo not drawn) [compound 277] was 100 to 1000 nM. In the case of `CNC1=C(c2nc3ccccc3[nH]2)C(=O)C(C)(c2ccco2)N1c1cc(OC)cc(OC)c1` (stereo not drawn) [compound 278], on mu-opioid receptor [1] (setting [3]), the EC50 lay in the range of 100 to 1000 nM. Still for that read-out and setting: the value for `CNC1=C(c2nc3ccccc3[nH]2)C(=O)C(C(C)=O)N1c1cc(OC)cc(OC)c1` (stereo not drawn) [compound 279] was below 100 nM.

Turning to `CNC1=C(c2nc3ccccc3[nH]2)C(=O)C(C)(Cc2ccco2)N1c1cc(OC)cc(OC)c1` (stereo not drawn) [compound 280], at mu-opioid receptor [1] (setting [3]), the EC50 was 100 to 1000 nM.

Regarding `CNC1=C(c2nc3ccccc3[nH]2)C(=O)C(C)(CNC(=O)COC)N1c1cc(OC)cc(OC)c1` (stereo not drawn) [compound 283], the EC50 on mu-opioid receptor [1] (setting [3]) was below 100 nM.

For `CNC1=C(c2nc3ccccc3[nH]2)C(=O)C(C)(CCNC(C)=O)N1c1cc(OC)cc(OC)c1` (stereo not drawn) [compound 284], the EC50 at mu-opioid receptor [1] (setting [3]) was below 100 nM.

With `CNC1=C(c2nc3ccccc3[nH]2)C(=O)C(C)(CCNC(=O)COC)N1c1cc(OC)cc(OC)c1` (stereo not drawn) [compound 286], the EC50 at mu-opioid receptor [1] (setting [3]) is below 100 nM.

With `CNC1=C(c2nc3ccccc3[nH]2)C(=O)C(CNC(=O)COC)N1c1cc(OC)cc(OC)c1` (stereo not drawn) [compound 289], the EC50 at mu-opioid receptor [1] (setting [3]) is below 100 nM. Same read-out and setting: under `COc1cc(OC)cc(N2C(N)=C(c3nc4ccccc4[nH]3)C(=O)C23CCCNC3)c1` (stereo not drawn) [compound 293] stands 1000 to 10000 nM; under `COc1cc(OC)cc(N2C(N)=C(c3nc4ccccc4[nH]3)C(=O)C23CCCN(C(C)=O)C3)c1` (stereo not drawn) [compound 294], 1000 to 10000 nM; under `COc1cc(OC)cc(N2C(N)=C(c3nc4ccccc4[nH]3)C(=O)C23CCCOC3)c1` (stereo not drawn) [compound 295], 100 to 1000 nM. Still for that read-out and setting: under `COCC1(C)C(=O)C(c2nc3ccccc3[nH]2)=C(N)N1c1cc(OC)cc(OC)c1` (stereo not drawn) [compound 296] stands 100 to 1000 nM; under `CNC1=C(c2nc3ccccc3[nH]2)C(=O)[C@](C)(COC)N1c1cc(OC)cc(OC)c1` [compound 297], 100 to 1000 nM; under `CNC1=C(c2nc3ccccc3[nH]2)C(=O)[C@@](C)(COC)N1c1cc(OC)cc(OC)c1` [compound 298], below 100 nM. Take `CNC1=C(c2nc3ccccc3[nH]2)C(=O)[C@](C)(CCOC)N1c1cc(OC)cc(OC)c1` [compound 299]: on mu-opioid receptor [1] (setting [3]), the EC50 was 100 to 1000 nM. The same measure, in the same setting: under `CNC1=C(c2nc3ccccc3[nH]2)C(=O)[C@@](C)(CCOC)N1c1cc(OC)cc(OC)c1` [compound 300] stands below 100 nM; under `COc1cc(OC)cc(N2C(N)=C(c3nc4ccccc4[nH]3)C(=O)[C@]2(C)CCNC(C)=O)c1` [compound 301], 100 to 1000 nM. Still for that read-out and setting: the value for `COc1cc(OC)cc(N2C(N)=C(c3nc4ccccc4[nH]3)C(=O)[C@@]2(C)CCNC(C)=O)c1` [compound 302] was 100 to 1000 nM; that for `CNC1=C(c2nc3ccccc3[nH]2)C(=O)[C@@](C)(CCNC(C)=O)N1c1cc(OC)cc(OC)c1` [compound 304] was below 100 nM. The same measure, in the same setting: under `CNC1=C(c2nc3ccccc3[nH]2)C(=O)[C@@]2(CCCOC2)N1c1cc(OC)cc(OC)c1` [compound 306] stands 100 to 1000 nM. For the compound `CNC1=C(c2nc3ccccc3[nH]2)C(=O)C(C)(CC(C)O)N1c1cc(OC)cc(OC)c1` (stereo not drawn) [compound 309], the EC50 on mu-opioid receptor [1] (setting [3]) is below 100 nM.

For `CNC1=C(c2nc3ccccc3[nH]2)C(=O)C2(CCC(O)C2)N1c1cc(OC)cc(OC)c1` (stereo not drawn) [compound 311], the EC50 at mu-opioid receptor [1] (setting [3]) was below 100 nM. Same read-out and setting: the value for `CNC1=C(c2nc3ccccc3[nH]2)C(=O)C2(CCC(=O)C2)N1c1cc(OC)cc(OC)c1` (stereo not drawn) [compound 312] was below 100 nM; that for `CCOC(=O)C1CC2(CC1=O)C(=O)C(c1nc3ccccc3[nH]1)=C(N)N2c1cc(OC)cc(OC)c1` (stereo not drawn) [compound 313] was 1000 to 10000 nM; that for `[2H]C1CC2(CC1=O)C(=O)C(c1nc3ccccc3[nH]1)=C(NC)N2c1cc(OC)cc(OC)c1` (stereo not drawn) [compound 314] was below 100 nM.

On to `CNC1=C(c2nc3ccccc3[nH]2)C(=O)[C@H](CNC(=O)COC)N1c1cc(OC)cc(OC)c1` [compound 315], for which the EC50 at mu-opioid receptor [1] (setting [3]) was below 100 nM. With `CNC1=C(c2nc3ccccc3[nH]2)C(=O)[C@@H](CNC(=O)COC)N1c1cc(OC)cc(OC)c1` [compound 316], at mu-opioid receptor [1] (setting [3]), the EC50 was below 100 nM. On the same count and under the same terms, the value for `CNC1=C(c2nc3ccccc3[nH]2)C(=O)[C@](C)(CNC(=O)COC)N1c1cc(OC)cc(OC)c1` [compound 317] was 100 to 1000 nM. Same read-out and setting: under `CNC1=C(c2nc3ccccc3[nH]2)C(=O)[C@@](C)(CNC(=O)COC)N1c1cc(OC)cc(OC)c1` [compound 318] stands below 100 nM.
